# Activity calls are given as the source filed them. The calls are words filed in the database; no cut-off is given here.
# Tests used:
# [1] = test system: Human alphaherpesvirus 2; assay: Antiviral activity against Herpesvirus 2; type: functional
# [2] = test system: rhinovirus A2; assay: Antiviral activity against Human rhinovirus 2; type: functional; settings: Rhinovirus A
# [3] = Antiviral activity against Human rhinovirus 17; type: functional, Human rhinovirus B17; settings: Rhinovirus B
# [4] = test system: Equine herpesvirus sp.; assay: Antiviral activity Equine rhinovirus; type: functional
# [5] = test system: Human respirovirus 3; assay: Antiviral activity against Parainfluenza virus 3; type: functional
# [6] = test system: Respiratory syncytial virus; assay: Antiviral activity against Respiratory syncytial virus; type: functional; settings: human respiratory syncytial virus
# [7] = test system: Human alphaherpesvirus 1; assay: Antiviral activity against Herpes simplex virus 1; type: functional
# [8] = test system: Influenza A virus; assay: Antiviral activity against Influenza A2 Japan 170 virus infected in ferret trachea assessed as reduction in virus yield at 50 ug/ml; type: functional; settings: A2 Japan 170, Trachea, in Mustela putorius
# [9] = test system: Influenza A virus; assay: Antiviral activity against Influenza A2 Japan 170 virus infected in ferret trachea assessed as reduction in virus yield at 25 ug/ml; type: functional; settings: A2 Japan 170, Trachea, in Mustela putorius
# [10] = test system: Equine herpesvirus sp.; assay: Antiviral activity Equine rhinovirus infected in monkey trachea assessed as log reduction in virus yield at 25 ug/ml; type: functional
# [11] = test system: Equine herpesvirus sp.; assay: Antiviral activity Equine rhinovirus infected in monkey trachea assessed as log reduction in virus yield at 50 ug/ml; type: functional
# [12] = test system: Human alphaherpesvirus 1; assay: (§1) Antiviral activity against Herper simplex virus 1 Sheely infected in Blue Spruce mouse assessed as host survival rate administered as 10% suspension in 1% gum tragacanth intravaginally, bid using cotton tampons treatment started 4 hrs post-infection for every 24 hrs and second treatment followed 6 hrs later for 7 days measured 14 days post-infection (reference value: 40%); type: functional
# [13] = test system: Human alphaherpesvirus 1; assay: as §1, with “5%” for “10%”; type: functional
# [14] = test system: Human alphaherpesvirus 1; assay: as §1, with “time” for “rate”, “days” for “days measured 14 days post-infection”, “>10.7 days)” for “40%)”; type: functional
# [15] = test system: Human alphaherpesvirus 1; assay: as §1, with “time” for “rate”, “5%” for “10%”, “days” for “days measured 14 days post-infection”, “>10.7 days)” for “40%)”; type: functional
Structure (SMILES),MIC [1],other results
CCC(=O)C(Cc1ccc(C)cc1)C(=O)CC,inactive,–
CCC(=O)C(Cc1ccc(/C=C/c2ccccc2)cc1)C(=O)CC,inactive,–
CCC(=O)C(Cc1ccc(Cc2ccc(O)cc2)cc1)C(=O)CC,3 mg/L,–
CCC(=O)C(Cc1ccc(OC)cc1Cl)C(=O)CC,50 mg/L,–
CCC(=O)C(Cc1ccc(Cc2ccccc2)cc1)C(=O)CC,6 mg/L,–
CCC(=O)C(Cc1ccc(Oc2ccc(OC)cc2)cc1)C(=O)CC,3 mg/L,–
CCC(=O)C(Cc1ccc(/C=C/c2ccc(OC)cc2)cc1)C(=O)CC,1.25 mg/L,MIC [2]: 0.2 mg/L; MIC [3]: 0.3 mg/L; MIC [4]: 0.06 mg/L; MIC [5]: 3 mg/L; MIC [6]: 1.5 mg/L; MIC [7]: 0.7 mg/L; inhibition at 50 µg/mL [8]: 0%; inhibition at 25 µg/mL [9]: 0%; LCK [10]: 1.7; LCK [11]: 2; Survival [12]: 60%; Survival [13]: 50%; Time [14]: >11.4 days; Time [15]: >11.3 days
CCC(=O)C(Cc1ccc(O)cc1)C(=O)CC,inactive,–
CCC(=O)C(Cc1ccc(Cc2ccc(OC)cc2)cc1)C(=O)CC,6 mg/L,–
CCC(=O)C(Cc1ccc(OC)cc1)C(=O)CC,inactive,–
CCC(=O)C(Cc1ccc(CCc2ccc(OC)cc2)cc1)C(=O)CC,3 mg/L,–
CCC(=O)C(Cc1ccc(/C=C/c2ccc(O)cc2Cl)cc1)C(=O)CC,1.5 mg/L,–
CCC(=O)C(Cc1ccc(/C=C/c2ccc(O)cc2)cc1)C(=O)CC,1.5 mg/L,–
CCC(=O)C(Cc1ccc(/C=C/c2ccc(OC)cc2Cl)cc1Cl)C(=O)CC,inactive,–
CCC(=O)C(Cc1ccc(/C=C/c2ccc(OC)cc2Cl)cc1)C(=O)CC,1.5 mg/L,–
CCC(=O)C(Cc1ccc(/C=C/c2ccc(Cl)cc2)cc1)C(=O)CC,inactive,–
CCC(=O)C(CC1CCC(Cc2ccc(OC)cc2)CC1)C(=O)CC (configuration not stated),6 mg/L,–
CCC(=O)C(C[C@H]1CC[C@@H](COc2ccc(OC)cc2Cl)CC1)C(=O)CC,6 mg/L,–
